# Entries after “also recorded” stand apart in the source; their conditions may differ. Where a SMILES comes first, the peptide text is derived from it. [ ]: non-standard residue; d: D form. The star is where a group is joined. ξ: configuration not given here. NH(TEMPO-4-yl) = CC1(C)CC(N*)CC(C)(C)N1[O]; Orn = NCCC[C@H](N)C(=O)O; Cbz = O=C(OCc1ccccc1)*; Boc = CC(C)(C)OC(=O)*; ξOrn = NCCCC(N)C(=O)O; X1 = CC1CCN=C(N*)S1
# Key:
# [1] = test system: mitochondria of 32D c 13 hemopoietic cells; experiment: Mass spectrometry of compounds in mitochondria isolated from 32D cl 3 cells; format: cell-based, murine; conditions: 100 μM; two hours at 37° C.
# Description: An unconjugated and conjugated NOS antagonist, (AMT, 100 μM) and an unconjugated and conjugated nitroxide derivative (4-amino-TEMPO, 100 μM) were incubated for two hours at 37° C. with 32D c 13 hemopoietic cells.
# Following incubation, the cells were lysed and the mitochondria isolated for a mass spectrometry analysis where compounds isolated from mitochondria were identified as Na+ adducts. […] Thus, the targeting peptides successfully direct a NOS antagonist and a nitroxide to the mitochondria.
# [2] = test system: irradiated uroepithelial cells; experiment: NO and peroxynitrite production in irradiated uroepithelial cells; format: cell-based; conditions: 4-amino-TEMPO 100 μM, AMT 10 μM; capsaicin evoked; 24 hours after irradiation
# Description: Further physiological studies were conducted to determine the effects of peptide-targeted AMT and 4-amino-TEMPO on NO and peroxynitrite production in irradiated uroepithelial cells. The cells were cultured in an 8-well slide chamber for 3 days and then microsensor measurements were taken 24 hours after irradiation.
# In cells treated with high-dose conjugated 4-amin-TEMPO (100 μM), peroxynitrite production was decreased by approximately 4-fold.
# mitochondrial membrane = experiment: Quantitative mass spectrometry of AMT peptide conjugates permeating the mitochondrial membrane; format: cell-based; conditions: relative quantification of conjugate at the target site
# Description: Quantitative mass spectrometry studies were used to compare the effectiveness of several AMT peptide conjugates in permeating the mitochondrial membrane, specifically XJB-5-234, XJB-5-133, XJB-5-241, and XJB-5-127. The fmole/10 μM mitochondrial protein ratio provides a relative quantification of conjugate concentration at the target site.
# [3] = test system: p16 in primary MEFs from Ercc1−/− mouse embryos; experiment: p16 immunofluorescence in Ercc1−/− MEFs under 20% oxygen; format: cell-based; conditions: 1 uM, 48 hrs
# Description: To test the protective activity of JP4-039, cultures of primary MEFs were prepared from Ercc1^−/− mouse embryos and grown under 20% oxygen (ambient air), which creates oxidative stress in these cells that are hypersensitive to reactive oxygen species. The cells were then either treated with a concentration of 1 uM XJB-5-131, JP4-039, JED-E71-37 or JED-E71-58, or left untreated (media), and then after 48 hrs the level of p16, a marker of irreversible cellular senescence, was measured by immunofluorescence staining.
# [4] = test system: γ-H2AX in primary MEF cells from Ercc1−/− mice; experiment: γ-H2AX immunostaining in Ercc1−/− MEFs under oxidative stress; format: cell-based, mouse; conditions: 1 μM, 48 hours
# Description: Next, the abilities of these two agents, as well as XJB-5-131 and JP4-039, each at a concentration of 1 μM, were tested for their ability to prevent oxidation-induced DNA double-strand breaks in cell cultures prepared, and oxidatively stressed, as in the preceding paragraph. Treated as well as untreated cells were, after 48 hours of treatment, immunostained for γ-H2AX, a marker of DNA double-strand breaks as well as cellular senescence.
# [5] = test system: mice exposed to total body irradiation; experiment: Survival of mice after total body irradiation; format: in vivo, mouse
# Description: In FIG. 17A, mice received intraperitoneal injection of 10 mg per kilogram of each of the chemicals indicated in FIG. 5, then 24 hours later received 9.75 Gy total body irradiation according to published methods. Mice were followed for survival according to IACUC regulations. […] (P=0.0008). In FIG. 17B, mice received intraperitoneal injection of JP4-039 either 10 minutes before (square symbols) or 4 hours after (triangle symbols) irradiation with 9.75 Gy.
# Groups of 15 mice received intraperitoneal injection of 10 mg. per kilogram of each indicated GS-nitroxide compound or carrier (Cremphora plus alcohol at 1 to 1 ratio, then diluted 1 to 10 in distilled water). Mice received 10 mg per kilogram intra-peritoneal injection 24 hours prior to total body irradiation. Control mice received radiation alone. […] (P=0.0005)
# [6] = test system: MEF cells prepared from wild-type mouse embryos; experiment: Toxicity of JP4-039 in wild-type MEF cultures; format: cell-based; conditions: up to 10 μM, 48 hours
# Description: (§1) To assess the therapeutic potential of JP4-039, tests for safety and protective activity were performed. FIGS. 35 and 36 show the results of tests to evaluate whether varying concentrations of JP4-039 produce toxic effects after 48 hours in cultures of MEF cells prepared from Ercc1^−/− or wild-type mouse embryos, respectively.
# [7] = test system: 32D cl 3 mouse hematopoietic progenitor cell line; experiment: Irradiation survival curves of 32D cl 3 cells with JP4-039; format: cell-based; conditions: 10 μM
# Description: Irradiation survival curves were performed on cells from the 32D cl 3 mouse hematopoietic progenitor cell line, incubated in 10 μM JP4-039 for 1 hour before irradiation, or plated in methylcellulose containing 10 μM […] after irradiation. Cells were irradiated from 0 to 8 Gy, plated in 0.8% methylcellulose containing media, and incubated for 7 days at 37° C. Colonies of greater than 50 cells were counted and data analyzed by linear quadratic and single-hit, multi-target models.
# [8] = test system: KM101 human marrow stromal cells; experiment: Irradiation survival of KM101 cells with JP4-039; format: cell-based; conditions: 10 μM
# Description: KM101 cells were incubated in media alone or in JP4-039 (10 μM) for one hour before irradiation or 24 hours after irradiation. The cells were irradiated to doses ranging from 0 to 6 Gy and plated in 4 well plates. Seven days later the cells were stained with crystal violet and colonies of greater than 50 cells counted. Cells incubated in JP4-039 either before or after irradiation were more radioresistant as shown by an increased shoulder of n=2.3±0.2 or 2.2±0.2, respectively compared to n of 1.1±0.1 for the KM101 cells (p=0.0309 or 0.0386, respectively).
# [9] = test system: MEF cells prepared from Ercc1−/− mouse embryos; experiment: Toxicity of JP4-039 in Ercc1−/− MEF cultures; format: cell-based; conditions: 48 hours
# Description: as §1
# MECs [10] = experiment: ActD-induced apoptosis in MECs (annexin V, caspase-3, DNA fragmentation); conditions: for DNA fragmentation / caspase-3 activation / number of annexin V-positive cells (PS externalization): 10 μM, ActD 100 ng/mL
# Description: The ability of 5a, 5b, and 4-AT to protect cells against apoptosis triggered by actinomycin D (“ActD”) was also tested. MECs were pretreated with 10 μM 4-AT, 5a, or 5b then incubated with ActD at a concentration of 100 ng/mL.
# Externalization of PS was analyzed by flow cytometry using an annexin V kit. Cells were harvested by trypsinization at the end of incubation and then stained with annexin V-FITC and propidium iodide (“PS”). Ten thousand cell events were collected on a FACScan flow cytometer. Annexin V-positive and PI-negative cells were considered apoptotic.
# Activation of capase-3, a cysteine protease only activated in the execution phase of apoptosis, was determined using an EnzChek capsase-3 assay kit.
# These DNA fragments are eluted, stained with propidium iodide and analyzed using flow cytometry. A cell population with decreased DNA content was considered a fraction of apoptotic cells.
# [11] = test system: mouse embryonic cells (MEC); experiment: EPR-based analysis of integration and reduction of nitroxide Gramicidin S-peptidyl conjugates in MECs; format: cell-based; conditions: 10 μM, whole cells, cytosol fractions
# Description: Electron paramagnetic resonance (“EPR”) spectroscopy was used to monitor the cellular delivery of compounds 5a and 5b shown in FIG. 3 in mouse embryonic cells (“MEC”).
# The following conditions were used during the EPR-based analysis of the integration and reduction of nitroxide Gramicidin S-peptidyl conjugates in MECs. The MECs at a concentration of 10 million MECs per mL were incubated with 10 μM of 4-AT and compound 5a, respectively. Recovered nitroxide radicals in whole cells, mitochondria, and cytosol fractions were resuspended in phosphate buffer saline (“PBS”) in the presence and absence, respectively, of 2 μM K3Fe(CN)6.
# MECs [12] = experiment: Intracellular superoxide generation (DHE flow cytometry) in ActD-treated MECs; format: cell-based, mouse; conditions: 10 μM pretreatment; ActD 100 ng/mL
# Description: Determination of intracellular superoxide radicals. Oxidation-dependent fluorogenic dye, dihydroethidium (“DHE”, Molecular Probes) was used to evaluate intracellular production of superoxide radicals. DHE is cell permeable and, in the presence of superoxide, is oxidized to fluorescent ethidium which intercalates into DNA. The fluorescence of ethidium was measured using a FACscan (Becton-Dickinson, Rutherford, N.J.) flow cytometer, equipped with a 488-nm argon ion laser and supplied with the Cell Quest software. Mean fluorescence intensity from 10,000 cells were acquired using a 585-nm bandpass filter (FL-2 channel).
smiles,measurement,setting,value
"CC1CCN=C(N)S1 (stereo not drawn) [AMT, 2-amino-6-methyl-thiazine]","permeation of the mitochondrial membrane (MS, Na+ adducts)",[1],do not enter the mitochondria membrane in substantial quantities
same,peroxynitrite formation,[2],comparable amount of peroxynitrite
"CC(C)C[C@@H](/C=C/[C@H](Cc1ccccc1)C(=O)NC1=NCCC(C)S1)NC(=O)OC(C)(C)C (stereo partly drawn) [XJB-5-234, Boc-Leu-[ψ(E)-CH═CH]-^DPhe-AMT]",fmole/10 μM mitochondrial protein,mitochondrial membrane,1.45 fmole/10 μM mitochondrial protein
"CC(C)C[C@@H](/C=C/CC(=O)NC1CC(C)(C)N([O])C(C)(C)C1)NC(=O)OC(C)(C)C [JP4-039, TEMPO-4-yl-(S,E)-5-(tert-butoxycarbonylamino)-7-methyloct-3-enamide]",level of p16,[3],much lower
same,γ-H2AX (oxidation-induced DNA double-strand breaks),[4],also effective
same,survival of mice,"[5]; 9.5 Gy total body irradiation, 10 mg per kilogram intraperitoneal 24 hours prior",increases survival
same,survival of mice,"[5]; 9.75 Gy total body irradiation, 10 mg per kilogram intraperitoneal",significant increase in survival; also recorded: increases survival
same,toxicity,[6],no signs of toxicity were observed
same,hematopoietic cell radiation mitigation,[7],effective hematopoietic cell radiation mitigator
same,mitigation of irradiation damage,[8],effective mitigator
same,change in the Do,[8]; before or after irradiation,no significant change
same,cellular proliferation relative to untreated control cells,[9]; Ercc1−/− or wild-type MEF,enhanced
same,toxicity,[9]; up to 10 μM,no signs of toxicity were observed
"CC1(C)CC(N)CC(C)(C)N1[O] [4-amino-TEMPO, reference compound]","permeation of the mitochondrial membrane (MS, Na+ adducts)",[1],only permeate the mitochondrial membrane with the assistance of the attached GS-derived targeting sequence
same,peroxynitrite formation,[2],comparable amount of peroxynitrite
same,protection against ActD-induced apoptosis,MECs [10]; 10 μM / low concentrations,afforded no protection
same,EPR signals of nitroxide radicals; integration into cells and mitochondria,[11],did not effectively permeate cells or the mitochondria
same,intracellular superoxide generation,MECs [12],had no effect
CC(C)C[C@H](NC(=O)OC(C)(C)C)C(=O)N[C@H](Cc1ccccc1)C(=O)N1CCC[C@H]1C(=O)N[C@H](C(=O)N[C@@H](CCCNC(=O)OCc1ccccc1)C(=O)NC1CC(C)(C)N([O])C(C)(C)C1)C(C)C [5b] (Boc-L[dF]PV[Orn](Cbz)-{NH(TEMPO-4-yl)}),DNA fragmentation,MECs [10],prevented DNA fragmentation
same,caspase-3 activation,MECs [10],prevented caspase-3 activation
same,number of annexin V-positive cells (PS externalization),MECs [10],reduced the number of annexin V•positive cells
same,protection or cytotoxicity at higher concentration,MECs [10]; concentrations in excess of 10 μM,either less protective or exhibited cytotoxicity
same,intracellular superoxide generation,MECs [12],completely inhibited
"CC(C)C[C@@H](/C=C/[C@H](Cc1ccccc1)C(=O)N1CCC[C@H]1C(=O)N[C@H](C(=O)N[C@@H](CCCNC(=O)OCc1ccccc1)C(=O)NC1=NCCC(C)S1)C(C)C)NC(=O)OC(C)(C)C (stereo partly drawn) [XJB-5-133, Boc-leu-ψ[(E)-CH═CH]-^DPhe-Pro-Val-Orn(Cbz)-AMT]",fmole/10 μM mitochondrial protein,mitochondrial membrane,89.8 fmole/10 μM mitochondrial protein
CC(C)C[C@@H](/C=C/[C@H](Cc1ccccc1)C(=O)N1CCC[C@H]1C(=O)N[C@H](C(=O)N[C@@H](CCCNC(=O)OCc1ccccc1)C(=O)NC1CC(C)(C)N([O])C(C)(C)C1)C(C)C)NC(=O)OC(C)(C)C [5a],DNA fragmentation,MECs [10],prevented DNA fragmentation
same,caspase-3 activation,MECs [10],prevented caspase-3 activation
same,number of annexin V-positive cells (PS externalization),MECs [10],reduced the number of annexin V•positive cells
same,intracellular superoxide generation,MECs [12],completely inhibited
"CC(C)C[C@H](NC(=O)OC(C)(C)C)C(=O)N[C@H](Cc1ccccc1)C(=O)N1CCC[C@H]1C(=O)N[C@H](C(=O)NC(CCCNC(=O)OCc1ccccc1)C(=O)NC1=NCCC(C)S1)C(C)C (stereo partly drawn) [XJB-5-127, Boc-Leu-^DPhe-Pro-Val-Orn(Cbz)-AMT] (Boc-L[dF]PV[ξOrn](Cbz)-X1)",fmole/10 μM mitochondrial protein,mitochondrial membrane,50.8 fmole/10 μM mitochondrial protein
"C/C(=C\[C@H](Cc1ccccc1)C(=O)N1CCC[C@H]1C(=O)N[C@H](C(=O)NC(CCCNC(=O)OCc1ccccc1)C(=O)NC1=NCCC(C)S1)C(C)C)[C@H](CC(C)C)NC(=O)OC(C)(C)C (stereo partly drawn) [XJB-5-241, Boc-Leu-ψ[(E)-C(CH3)═CH]-^DPhe-Pro-Val-Orn(Cbz)-AMT]",fmole/10 μM mitochondrial protein,mitochondrial membrane,103.3 fmole/10 μM mitochondrial protein

# Reference: patent US9890192B2, “Targeted nitroxide agents” (University of Pittsburgh—of the Commonwealth System of …, priority 2008, dated 2018)
